# Test results taken from patent US20260209260A1, “VECTORIZED NHC IRIDIUM(III) COMPLEXES AND USE THEREOF IN PHOTODYNAMIC THERAPY AND/OR DIAGNOSTIC” (CENTRE NATIONAL DE LA RECHERCHE SCIENTIFIQUE, priority 2022, published 2026).
# Several values for one entry are separate records, joined by “and”; a condition that tells them apart may be missing. Identical values can stand only once. Like-named read-outs stand apart in the source and are kept apart here.
# Assays:
# [1] = Luminescence emission spectra and quantum yield; type: physicochemical; details: for ΦP emission phosphorescence quantum yield: room temperature, reference POPOP in hexane or rhodamine B in ethanol; for λem: CH2Cl2, room temperature, λexc 365 nm or 470 nm
# Description: Fluorescence and phosphorescence emission spectra were obtained with a HORIBA JOBIN YVON, fluromax-4 and spectrofluorometer.
# Luminescence quantum yields were measured according to the method of Demas and Crosby, on solution samples at RT. The quantum yield is defined as: […]
# Where ΦP is the quantum yield of the sample, ΦR is the know quantum yield of the reference standard. […].
# The luminescence spectra of vectorized iridium(III) complexes were determined in CH2Cl2 at room temperature (Table 3).
# [2] = UV/Vis absorption spectra; type: physicochemical; details: room temperature; for maximum absorption, lowest-lying bands in the visible region over 360 nm: CH2Cl2 or CH2Cl2/MeOH (1:1); for λmax (nm) ε (M^−1 · cm^−1): air-saturated CH2Cl2 or CH2Cl2/MeOH (1:1), 50 μM, ε in brackets, sh = shoulder
# Description: UV/Vis absorption spectra were recorded at RT on solutions contained in quartz cuvettes (optical pathlength 1 cm, Hellma®) with a PerkinElmer® UV/VIS/NIR spectrophotometer Lambda 950 and a PerkinElmer® detector UV/VIS/NIR Accessory 2D Detector Module.
# [3] = Emission lifetime measurement; type: physicochemical
# Description: Fluorescence lifetime measurements were performed by an Edinburgh FLS920 spectrofluorimeter equipped with a TCC900 card for data acquisition in time-correlated single-photon counting experiments (0.5 ns time resolution) with a D2 lamp and an LDH—P-C-405 pulsed diode laser. The estimated experimental error is 2 nm on the band maximum (5% on the lifetime, 10% on the fluorescence quantum yield).
# The emission lifetimes of biotin-vectorized complexes (I-a) to (I-l) range from 138 ns to 411 ns, among them, the lifetime of biotin-vectorized complexes (I-c), (I-e), (I-k) are 411, 224, and 322 ns respectively. The emission lifetimes of FTS-vectorized complexes (II-a) to (II-l) range from 167 ns to 486 ns, among them, the lifetime of FTS-vectorized complexes (II-c) and (II-k) are 319 and 486 ns respectively. The emission lifetimes of PSMA-vectorized complexes (III-a) to (III-l) are in the range of 159-649 ns, among them, the lifetime of complexes (III-a) and (III-k) were 248 and 649 ns, respectively. The emission lifetimes of Fc-vectorized complexes (IV-a) to (IV-l) are in the range of 178-228 ns.
# [4] = system: NIH-3T3 fibroblast cells (non-tumor); test: Cell viability assay (MTT), dark and blue light; type: cell-based, Murine; details: for Photosensitizing index (PI): NIH-3T3, dark vs blue light
# Description: (§1) Cells were grown in humidified incubators at 37° C. in 5% CO2. Murine MC3T3 osteoblast and NIH-3T3 fibroblast cells-used as non-tumor cell models-were cultured in a-MEM medium and DMEM medium supplemented with 10% fetal bovine serum (FBS) and 1% Penicillin/Streptomycin (P/S) antibiotics, respectively. Human T24 bladder, MGHU3 bladder, Scaber bladder, A549 lung, MCF7 breast, MiaPaCa2 pancreas cancer cells were cultured in DMEM medium supplemented with 10% FBS and 1% P/S antibiotics. […] Human Hela cervix and HepG2 liver cancer cells were cultured EMEM medium supplemented with 10% FBS and 1% P/S antibiotics.
# (§2) MTT reagent (3-(4,5-dimethylthiazol-2-yl)-2,5-diphenyltetrazolium bromide) was used to determine cell death as originally described by Mosmann. Briefly, cells were seeded from 5,000 to 10,000 cells/well in 24-well plates (1 mL) depending on the cell type and allowed to attach overnight. The complexes were prepared in DMSO. The concentration of the complexes was calculated based on the elemental composition of the complexes determined by the elemental analyses. All cell viability experiments were carried out with a fixed concentration of 0.1% (v/v) DMSO. After 72 h of treatment, cells were incubated at 37° C. and 5% CO2 with 25 μL of MTT solution (5 mg/ml; Sigma-Aldrich) in 24-well plates for 3 to 4 h. After solubilization with 500 μL of DMSO, formazan was quantified spectrophotometrically with a microplate reader at 570 nm absorbance (ClarioSTAR, BMG LabTech). […] All the results were calculated from data obtained in at least three independent experiments performed in triplicate.
# (§3) Two sets of experiments were conducted in parallel for each complex to be studied:
# (§4) 1. The cells were incubated with the different complexes (in the dark) for 72 h.
# (§5) 2. The cells were incubated for 8 h with the different complexes (in the dark), then irradiated for 10 min, followed by an incubation in the dark up to 72 h.
# [5] = system: T24 bladder cancer cells; test: Cell viability assay (MTT), dark and blue light; type: cell-based, Human; details: for Photosensitizing index (PI) T24: dark vs blue light 458 nm; for SI (vs NIH-3T3) T24 Blue: blue light 458 nm
# Description: as §1, §2, §3, §4, §5
# [6] = Lipophilicity: octanol-water partition coefficient, shake-flask method
# Description: The octanol-water partition coefficients (P) of all the complexes were determined using a shake-flask method^8. Water (100 mL, distilled after milli-Q purification) and n-octanol (100 mL, Sigma Aldrich, ACS spectrophotometric grade, ≥99%) were shaken together for 24 h to allow saturation of both phases. Stock solutions of the compounds ([…]) were prepared in the aqueous phase. Aliquots (2 mL) of each of these stock solutions were then added to an equal volume of the n-octanol phase. The resultant biphasic solution was mixed for 15 min and then centrifuged (3000 tr/min, 5 min) to separate the phases. The concentrations of the complex in the organic and aqueous phases were then determined using UV absorbance spectroscopy (260 nm). The blank is the water saturated with n-octanol. Log P was defined as logarithm of the ratio of the concentrations of the complex in the organic and aqueous phases (values reported are the means of at least three separated determinations).
# The Log P values have been determined by a classical shake-flask method.
# [7] = system: PC-3 prostate cancer cells (PSMA-negative); test: Cell viability assay (MTT), dark and blue light; type: cell-based, Human; details: for GI50: read-out: GI50; for Photosensitizing index (PI): PC3, dark vs blue light
# Description: Cells were grown in humidified incubators at 37° C. in 5% CO2. Murine MC3T3 osteoblast and NIH-3T3 fibroblast cells-used as non-tumor cell models-were cultured in a-MEM medium and DMEM medium supplemented with 10% fetal bovine serum (FBS) and 1% Penicillin/Streptomycin (P/S) antibiotics, respectively. Human T24 bladder, MGHU3 bladder, Scaber bladder, A549 lung, MCF7 breast, MiaPaCa2 pancreas cancer cells were cultured in DMEM medium supplemented with 10% FBS and 1% P/S antibiotics. Human ASPC-1 pancreas, PC-3 prostate, DU-145 prostate, C4-2B prostate and 22rV1 prostate cancer cells were cultured in RPMI medium supplemented with 10% FBS and 1% P/S antibiotics. Human Hela cervix and HepG2 liver cancer cells were cultured EMEM medium supplemented with 10% FBS and 1% P/S antibiotics.
# as §2
# Irradiation was conducted using an in-house device, a series of blue light LEDs selected according to the absorption spectra of the compounds at 458 nm wavelength with an emitted power of 9.6 Watts. The light fluence was measured at 458 nm with an optical power meter Thorlabs PM100A at different distances between the cell layer and the light source (5 and 10 cm).
# as §3, §4, §5
# [8] = 8 h in the dark, blue light 458 nm 10 min, then dark up to 72 h, read-out: GI50 NIH-3T3 Blue
# [9] = in the dark, 72 h, read-out: GI50 NIH-3T3 Dark
# [10] = 8 h in the dark, blue light 458 nm 10 min, then dark up to 72 h, read-out: GI50 T24 Blue
# [11] = in the dark, 72 h, read-out: GI50 T24 Dark
# [12] = n-octanol/water, shake-flask, mean of at least three determinations
SMILES,ΦP emission phosphorescence quantum yield [1] [%],"maximum absorption, lowest-lying bands in the visible region over 360 nm [2]",λmax (nm) ε (M^−1 · cm^−1) [2],τ1 emission lifetime [3] [ns],"GI50 [4, 8] [µM]","GI50 [4, 9] [µM]","GI50 [5, 10]",SI (vs NIH-3T3) T24 Dark [5],"GI50 [5, 11]","Log P [6, 12]",SI (vs NIH-3T3) T24 Blue [5],Photosensitizing index (PI) T24 [5],λem [1] [nm],Photosensitizing index (PI) [4],"GI50 ([4]; NIH-3T3, dark, read-out: GI50) [µM]",Log P [6],Photosensitizing index (PI) [7],"GI50 ([7]; PC3, dark) [µM]","SI (vs NIH-3T3) ([7]; PC3, dark)",also measured
Cc1ccc2[c](c1)[Ir-3]13([c]4cc(C)ccc4-c4cccc[n+]41)([c]1n(CCCNC(=O)CCCC[C@@H]4SC[C@@H]5NC(=O)N[C@@H]54)cc[n+]1-c1cccc[n+]13)[n+]1ccccc1-2.F[P-](F)(F)(F)(F)F [I-b],0.5,around 380 nm,"314 (sh) (18240), 382 (6150) nm (M^−1 · cm^−1)",177,> 100,> 100,8.3 µM,>7.3,13.7 µM,0.43 ± 0.01,,,,,,,,,,Photosensitizing index (PI) T24 ([5]; listed as l-b): 1.7
COC(=O)c1ccc2[c](c1)[Ir-3]13([c]4cc(C(=O)OC)ccc4-c4cccc[n+]41)([c]1n(CCCNC(=O)CCCC[C@@H]4SC[C@@H]5NC(=O)N[C@@H]54)cc[n+]1-c1cccc[n+]13)[n+]1ccccc1-2.F[P-](F)(F)(F)(F)F [I-c],5.9,,"310 (sh) (16860), 358 (4090), 400 (3295) nm (M^−1 · cm^−1)",411,> 100,> 100,24.9 µM and 24.5 µM,>3.7,26.7 µM and 26.9 µM,−0.78 ± 0.01,>4.1,1.1,,,,,,,,
COC(=O)c1cccc2[c]1[Ir-3]13([c]4c(C(=O)OC)cccc4-c4cccc[n+]41)([c]1n(CCCNC(=O)CCCC[C@@H]4SC[C@@H]5NC(=O)N[C@@H]54)cc[n+]1-c1cccc[n+]13)[n+]1ccccc1-2.F[P-](F)(F)(F)(F)F [I-d],0.7,around 370 nm,373 (4260) nm (M^−1 · cm^−1),184,> 100,> 100,28.9 µM and 26.9 µM,>3.8,26.3 µM,−0.10 ± 0.01,>3.7,1.0,,,,,,,,
COC(=O)c1ccc2[n+](c1)[Ir-3]13([c]4ccccc4-2)([c]2ccccc2-c2ccc(C(=O)OC)c[n+]21)[c]1n(CCCNC(=O)[c-]2cccc2)cc[n+]1-c1cccc[n+]13.F[P-](F)(F)(F)(F)F.[Fe+2].c1cc[cH-]c1 [IV-e],0.17,,"312 (sh) (27925), 363 (sh) (7290), 434 (6530) nm (M^−1 · cm^−1)",200,,,,,,,,,528,7.7,32.3,1.37 ± 0.05,18.3,9.9,,"GI50 ([4]; NIH-3T3, blue light, read-out: GI50): 4.2 µM; GI50 ([7]; PC3, blue light): 0.54 µM"
F[P-](F)(F)(F)(F)F.O=C(NCCCn1cc[n+]2[c]1[Ir-3]13([c]4ccccc4-c4ccc5ccccc5[n+]41)([c]1ccccc1-c1ccc4ccccc4[n+]13)[n+]1ccccc1-2)[c-]1cccc1.[Fe+2].c1cc[cH-]c1 [IV-g],0.02,,"334 (17135), 436 (4150) nm (M^−1 · cm^−1)",214,,,,,,,,,579,3.3,11.8,1.42 ± 0.06,5.8,1.5,7.9,"SI (vs NIH-3T3) ([7]; PC3, blue light): 13.7"
F[P-](F)(F)(F)(F)F.O=C(NCCCn1cc[n+]2[c]1[Ir-3]13([c]4cc(F)cc(F)c4-c4cccc[n+]41)([c]1cc(F)cc(F)c1-c1cccc[n+]13)[n+]1ccccc1-2)[c-]1cccc1.[Fe+2].c1cc[cH-]c1 [IV-l],0.01,,"305 (sh) (21345), 356 (sh) (8645), 412 (3395) nm (M^−1 · cm^−1)",191,,,,,,,,,,5.4,,1.14 ± 0.02,3.2,,4.8,
